This experiment relates to HT29 intrarenal xenograft, nude mice, tumor weight change. Kind of experiment: NCI In Vivo Anticancer Drug Screen. Data for tumor model HT29;CX-1 Human Adenocarcinoma (MER+) (intrarenal inoculation) in NU/NU BALB/C (nude) mice. Conditions: endpoint: mean tumor weight change, higher = larger tumour. As to the method:
The antitumor activity of compounds was measured in mice bearing transplantable tumors. Survival or tumor size were measured and the results are expressed as the measurement made in the treated group (T) divided by the measurement made in the vehicle treated control group (C). The tumor model used in this assay is HT29;CX-1 Human Adenocarcinoma (MER+) (intrarenal inoculation) in NU/NU BALB/C (nude) mice

Setting [1] is: dose: 300.0 mg/kg/injection, schedule: Q04DX004 (sc), vehicle: Klucel (hydroxypropylcellulose) (HPC).
Setting [2] is: dose: 600.0 mg/kg/injection, schedule: Q04DX004 (sc), vehicle: Klucel (hydroxypropylcellulose) (HPC).
The mark [3] stands for this setting: dose: 1200.0 mg/kg/injection, schedule: Q04DX004 (sc), vehicle: Klucel (hydroxypropylcellulose) (HPC).
The mark [4] stands for this setting: dose: 75.0 mg/kg/injection, schedule: Q04DX004 (sc), vehicle: saline.
[5] abbreviates: dose: 50.0 mg/kg/injection, schedule: Q01DX010 (sc), vehicle: saline with Tween-80.
The mark [6] stands for this setting: dose: 100.0 mg/kg/injection, schedule: Q01DX010 (sc), vehicle: saline with Tween-80.
Setting [7] is: dose: 100.0 mg/kg/injection, schedule: Q04DX004 (sc), vehicle: saline.
Where [8] appears, read: dose: 150.0 mg/kg/injection, schedule: Q04DX004 (sc), vehicle: saline with Tween-80.
Setting [9] is: dose: 300.0 mg/kg/injection, schedule: Q04DX004 (sc), vehicle: saline with Tween-80.
Setting [10] is: dose: 600.0 mg/kg/injection, schedule: Q04DX004 (sc), vehicle: saline with Tween-80.
Setting [11] is: dose: 1200.0 mg/kg/injection, schedule: Q04DX004 (sc), vehicle: saline with Tween-80.
The mark [12] stands for this setting: dose: 2400.0 mg/kg/injection, schedule: Q04DX004 (sc), vehicle: saline with Tween-80.
[13] abbreviates: dose: 50.0 mg/kg/injection, schedule: Q04DX004 (sc), vehicle: saline.
Where [14] appears, read: dose: 5.0 mg/kg/injection, schedule: Q04DX004 (sc), vehicle: saline.

Several values for one entry are separate records, joined by “and”; a condition that tells them apart may be missing. Equal values may be shown once. Results filed as inconclusive are left out.

As to `COc1cccc2c1C(=O)c1c(O)c3c(c(O)c1C2=O)C[C@@](O)(C(=O)CO)C[C@@H]3OC1CC(N2CCOCC2C#N)C(O)C(C)O1` (stereo partly drawn), the T/C (dose: 15.0 micrograms/kg/injection, schedule: Q04DX004 (ip), vehicle: saline) is 114 % of control; the T/C (dose: 30.0 micrograms/kg/injection, schedule: Q04DX004 (ip), vehicle: saline) was 110 % of control; the T/C (dose: 60.0 micrograms/kg/injection, schedule: Q04DX004 (ip), vehicle: saline) was 78 % of control.

For the molecule `[Cl][Hg][Cl]`, the T/C was 155 % of control (dose: 2.5 mg/kg/injection, schedule: Q04DX004 (ip), vehicle: saline) and 68 % of control (dose: 5.0 mg/kg/injection, schedule: Q04DX004 (ip), vehicle: saline).

Regarding `CC1=C/C(O)CC(=O)Cc2nc(co2)C(=O)N2CCC=C2C(=O)OC(C(C)C)C(C)/C=C\C(=O)NC/C=C\1` (stereo not drawn), the T/C by setting is: (dose: 150.0 mg/kg/injection, schedule: Q04DX004 (sc), vehicle: Klucel (hydroxypropylcellulose) (HPC)) 66 % of control; under setting [1], 92 % of control; under setting [2], 54 % of control; under setting [3], 85 % of control.

Take `Cc1cnc(/C=N\NC(N)=S)c2cccc(N)c12`: the T/C (dose: 125.0 mg/kg/injection, schedule: Q04DX004 (ip), vehicle: saline with Tween-80) is 92 % of control.

With `C=C(C)[C@@H]1CCc2c(O)c(O)c(=O)cc(C)c2C1`, the T/C under setting [4] was 192 % of control.

Regarding `CO[C@H](/C(C)=C/C=C/C(C)=C/c1coc(C)n1)[C@H](C)[C@H]1C[C@@H](O)[C@@]2(C)O[C@H]2/C=C/[C@@H](C)[C@@H]2C[C@@H](CC(=O)O2)C[C@H]2O[C@@H]2C(=O)O1`, the T/C is 73 % of control and 88 % of control (dose: 0.13 mg/kg/injection, schedule: Q04DX004 (sc), vehicle: Klucel (hydroxypropylcellulose) (HPC)); 57 % of control (dose: 1.0 mg/kg/injection, schedule: Q04DX004 (sc), vehicle: Klucel (hydroxypropylcellulose) (HPC)).

Turning to `COC(=O)Nc1nc2ccc(SC)cc2c(=O)[nH]1`, the T/C by setting is: under setting [1], 122 % of control; under setting [2], 95 % of control; under setting [3], 48 % of control; (dose: 2400.0 mg/kg/injection, schedule: Q04DX004 (sc), vehicle: Klucel (hydroxypropylcellulose) (HPC)) 37 % of control.

In the case of `Cc1cc(NCCCCCCCCNc2cc(C)nc3cc(N(C)C)ccc23)c2ccc(N(C)C)cc2n1`, the T/C was 84 % of control (dose: 75.0 mg/kg/injection, schedule: Q04DX004 (sc), vehicle: distilled water + Tween-80 + alcohol); 62 % of control (dose: 150.0 mg/kg/injection, schedule: Q04DX004 (sc), vehicle: distilled water + Tween-80 + alcohol); 85 % of control (dose: 300.0 mg/kg/injection, schedule: Q04DX004 (sc), vehicle: distilled water + Tween-80 + alcohol); 35 % of control (dose: 600.0 mg/kg/injection, schedule: Q04DX004 (sc), vehicle: distilled water + Tween-80 + alcohol).

In the case of `Nc1nc2c(ncn2C2OC(CO)C(O)C2O)c(=O)[nH]1` (stereo not drawn), the T/C is, setting by setting: (dose: 225.0 mg/kg/injection, schedule: Q04DX004 (sc), vehicle: saline with Tween-80) 84 % of control; (dose: 450.0 mg/kg/injection, schedule: Q04DX004 (sc), vehicle: saline with Tween-80) 96 % of control; (dose: 900.0 mg/kg/injection, schedule: Q04DX004 (sc), vehicle: saline with Tween-80) 55 % of control; (dose: 1800.0 mg/kg/injection, schedule: Q04DX004 (sc), vehicle: saline with Tween-80) 100 % of control.

Consider `CN(C)CCC(=O)C(=Cc1ccc(O)cc1)C(=O)CCN(C)C`, for which the T/C is 66 % of control (dose: 75.0 mg/kg/injection, schedule: Q04DX004 (ip), vehicle: saline) and 100 % of control (dose: 150.0 mg/kg/injection, schedule: Q04DX004 (ip), vehicle: saline).

Turning to `c1ccc2c(c1)nnn1c3cnccc3nc21`, the T/C reads like this: under setting [5], 246 % of control; under setting [6], 65 % of control.

For the molecule `CS(=O)(=O)OCCCNCCCOS(C)(=O)=O`, the T/C under setting [4] is 71 % of control.

Take `CC[As](=O)(O)CC`: under setting [7], the T/C is 61 % of control.

Consider `CC1(C)CC2(C)OC2C2(C1)N=NC(=Nc1ccccc1)O2` (stereo not drawn), for which the T/C (dose: 75.0 mg/kg/injection, schedule: Q04DX004 (sc), vehicle: saline with Tween-80) was 16 % of control; the T/C under setting [8] was 124 % of control; the T/C under setting [9] is 89 % of control; the T/C under setting [10] was 69 % of control.

For `CN(C)CCOc1ccc2c(c1)C/C(=C/c1ncc([N+](=O)[O-])n1C)C2=O`, the T/C under setting [9] is 89 % of control, the T/C under setting [10] was 33 % of control, the T/C under setting [11] is 69 % of control and the T/C under setting [12] was 65 % of control.

On to `CN(C)c1nc(N(C)C)nc(N(C)C)n1`, for which the T/C was 99 % of control (dose: 12.5 mg/kg/injection, schedule: Q01DX010 (sc), vehicle: saline with Tween-80); 79 % of control under setting [5]; 72 % of control under setting [6].

Turning to `N=C1CCCS1`, the T/C is 117 % of control (dose: 12.5 mg/kg/injection, schedule: Q04DX004 (sc), vehicle: saline); 151 % of control (dose: 25.0 mg/kg/injection, schedule: Q04DX004 (sc), vehicle: saline); 96 % of control under setting [13]; 62 % of control under setting [7].

Take `Nc1ccn([C@@H](C=O)O[C@@H](C=O)CO)c(=O)n1`: the T/C by setting is: under setting [13], 117 % of control; under setting [7], 71 % of control; (dose: 200.0 mg/kg/injection, schedule: Q04DX004 (sc), vehicle: saline) 113 % of control.

On to `COc1ccc2c(NCCCCCCCCNc3c4ccccc4nc4cc(OC)ccc34)c3ccccc3nc2c1`, for which the T/C is, setting by setting: (dose: 31.25 mg/kg/injection, schedule: Q04DX004 (sc), vehicle: suspension in saline) 65 % of control; (dose: 62.5 mg/kg/injection, schedule: Q04DX004 (sc), vehicle: suspension in saline) 72 % of control; (dose: 125.0 mg/kg/injection, schedule: Q04DX004 (sc), vehicle: suspension in saline) 47 % of control; (dose: 250.0 mg/kg/injection, schedule: Q04DX004 (sc), vehicle: suspension in saline) 73 % of control.

`O=C(CCCCCCC(=O)ON1C(=O)CCC1=O)ON1C(=O)CCC1=O`: the T/C was 25 % of control under setting [8], 50 % of control under setting [9], 93 % of control under setting [10] and 77 % of control under setting [11].

As for `COc1cc(C(C)(C)C)cc(OC)c1C(O)(c1c(OC)cc(C(C)(C)C)cc1OC)c1c(OC)cc(C(C)(C)C)cc1OC`, the T/C runs as follows: (dose: 50.0 mg/kg/injection, schedule: Q04DX004 (sc), vehicle: saline with Tween-80) 51 % of control; (dose: 100.0 mg/kg/injection, schedule: Q04DX004 (sc), vehicle: saline with Tween-80) 79 % of control; (dose: 200.0 mg/kg/injection, schedule: Q04DX004 (sc), vehicle: saline with Tween-80) 63 % of control; (dose: 400.0 mg/kg/injection, schedule: Q04DX004 (sc), vehicle: saline with Tween-80) 68 % of control; under setting [10], 102 % of control; under setting [11], 80 % of control. Further, the T/C under setting [12] was 61 % of control.

In the case of `Nc1nc(=S)c2ncn(C3CC(O)C(CO)O3)c2[nH]1` (stereo not drawn), the T/C (dose: 1.88 mg/kg/injection, schedule: Q01DX010 (sc), vehicle: saline with Tween-80) was 164 % of control.

Consider `NC(Cc1ccc(N(CCCl)CCCl)cc1)C(=O)O` (stereo not drawn), for which the T/C reads like this: under setting [14], 46 % of control; (dose: 10.0 mg/kg/injection, schedule: Q04DX004 (sc), vehicle: saline) 106 % of control; (dose: 20.0 mg/kg/injection, schedule: Q04DX004 (sc), vehicle: saline) 47 % of control.

In the case of `Cc1ccc(S(=O)(=O)N/N=C/C(Br)=C(/Br)C(=O)O)cc1`, the T/C runs as follows: (dose: 1.25 mg/kg/injection, schedule: Q04DX004 (sc), vehicle: saline) 103 % of control; (dose: 2.5 mg/kg/injection, schedule: Q04DX004 (sc), vehicle: saline) 78 % of control; under setting [14], 105 % of control.

For the molecule `C[n+]1ccc2cc(N)c3c4ccccc4sc3c2c1`, the T/C is, setting by setting: (dose: 12.5 mg/kg/injection, schedule: Q04DX004 (sc), vehicle: saline with Tween-80) 60 % of control; (dose: 25.0 mg/kg/injection, schedule: Q04DX004 (sc), vehicle: saline with Tween-80) 43 % of control.

Values taken from PubChem BioAssay AID208 (DTP/NCI, 2004).
